Earlier results as cited in patent US8329663B2, “Compositions and methods for the treatment of chronic infections” (priority 2008, dated 2012).
Where two headings read alike, the source gives them in different places.

Experiments:
[1] = in water
[2] = system: C. pneumoniae
[3] = first (or only) pKa value listed
[4] = second pKa value listed (polyprotic)
[5] = third pKa value listed (polyprotic)

SMILES | pKa (in H2O) [1, 3] | pKa (in H2O) [1, 4] | pKa (in H2O) [1, 5] | in vitro susceptibility of C. pneumoniae [2]
Cc1nc2n(c(=O)c1CCN1CCC(c3noc4cc(F)ccc34)CC1)CCCC2O (stereo not shown) [9-Hydroxy-risperidone] | 2.77 | 7.86 | – | –
C[C@H](N)C(=O)N[C@@H](C)C(=O)N[C@H]1[C@@H]2CN(c3nc4c(cc3F)c(=O)c(C(=O)O)cn4-c3ccc(F)cc3F)C[C@@H]21 [Alatrofloxacin] | 0.64 | 8.12 | – | –
CC1(C)S[C@@H]2[C@H](NC(=O)[C@H](N)c3ccc(O)cc3)C(=O)N2[C@H]1C(=O)O [Amoxicillin] | 2.8 | 7.2 | – | –
CC(C)CN(C[C@@H](O)[C@H](Cc1ccccc1)NC(=O)O[C@H]1CCOC1)S(=O)(=O)c1ccc(N)cc1 [Amprenavir] | 1.76 | 11.54 | – | –
CC(=O)OCC1=C(C(=O)O)N2C(=O)[C@@H](NC(=O)CSc3ccncc3)[C@H]2SC1 [Cephapirin] | 2.15 | 5.44 | – | –
CN(C)CCc1c[nH]c2ccccc12 [Dimethyltryptamine] | 2 | – | – | –
O=C(O)c1cccc(C(=O)O)n1 [Dipicolinic Acid] | – | 4.97 | – | –
C[C@H]1c2cccc(O)c2C(=O)C2=C(O)[C@]3(O)C(=O)C(C(N)=O)=C(O)[C@@H](N(C)C)[C@@H]3[C@@H](O)[C@@H]21 [Doxycycline] | 3.5 | 7.7 | 9.5 | –
O=C(O)c1ccccc1Nc1cccc(C(F)(F)F)c1 [Flufenamic acid] | 3.9 | – | – | –
CCOC(=O)c1ncn2c1CN(C)C(=O)c1cc(F)ccc1-2 [Flumazenil] | 1.7 | – | – | –
OCCOCCN1CCN(C(c2ccccc2)c2ccc(Cl)cc2)CC1 (stereo not shown) [Hydroxyzine] | 1.8 | – | – | –
NNC(=O)c1ccncc1 [Isoniazid] | 1.82 | – | – | –
C[N+](C)(C)C[C@H](O)CC(=O)[O-] [L-carnitine] | 3.8 | – | – | –
Cc1ccccc1-n1c(C)nc2ccccc2c1=O [Methaqualone] | 2.5 | – | – | –
NCC1(CC(=O)O)CCCCC1 [Neurontin] | 3.68 | 10.70 | – | –
COc1ccc2[nH]c([S+]([O-])Cc3ncc(C)c(OC)c3C)nc2c1 (stereo not shown) [Omeprazole] | – | 8.8 | – | –
CCCN(CCC)S(=O)(=O)c1ccc(C(=O)O)cc1 [Probenicid] | 3.4 | – | – | –
CN(C)CCc1c[nH]c2cccc(OP(=O)(O)O)c12 [Psilocybin] | 0.2 | – | – | –
CO[C@H]1/C=C/O[C@@]2(C)Oc3c(C)c(O)c4c(O)c(c(/C=N/N5CCN(C)CC5)c(O)c4c3C2=O)NC(=O)/C(C)=C\C=C\[C@H](C)[C@H](O)[C@@H](C)[C@@H](O)[C@@H](C)[C@H](OC(C)=O)[C@@H]1C [Rifampin] | 1.7 | 7.9 | – | –
O=P(O)(O)C(O)(Cc1cccnc1)P(=O)(O)O [Risedronic acid] | 0.32 | 5.09 | – | –
CCS(=O)(=O)CCn1c([N+](=O)[O-])cnc1C [Tinidazole] | 2.34 | – | – | –
CC(C)[C@H](N)C(=O)OCCOCn1cnc2c(=O)[nH]c(N)nc21 [Valacyclovir] | 1.90 | 7.47 | 9.43 | –
CC[C@H]1OC(=O)[C@H](C)[C@@H](O[C@H]2C[C@@](C)(OC)[C@@H](O)[C@H](C)O2)[C@H](C)[C@@H](O[C@@H]2O[C@H](C)C[C@H](N(C)C)[C@H]2O)[C@](C)(OC)C[C@@H](C)C(=O)[C@H](C)[C@@H](O)[C@]1(C)O [clarithromycin] | – | – | – | susceptible in vitro
CC[C@H]1OC(=O)[C@H](C)[C@@H](O[C@H]2C[C@@](C)(OC)[C@@H](O)[C@H](C)O2)[C@H](C)[C@@H](O[C@@H]2O[C@H](C)C[C@H](N(C)C)[C@H]2O)[C@](C)(O)C[C@@H](C)C(=O)[C@H](C)[C@@H](O)[C@]1(C)O [erythromycin] | – | – | – | susceptible in vitro
C[C@@H]1CN(c2c(F)c(N)c3c(=O)c(C(=O)O)cn(C4CC4)c3c2F)C[C@H](C)N1 [sparfloxacin] | – | – | – | susceptible in vitro
